Experimental data reported in ChEMBL document CHEMBL1201862, “PubChem BioAssay data set” (2004).
Activity calls are given as the source filed them. For most assays here, no stated cut-off is given here; in the data, actives have a measured EC50 and inactives only a lower limit.

molecular target: T1, Corticotropin-releasing factor receptor 2/Corticotropin-releasing factor-binding protein (Homo sapiens, UniProt P24387+Q13324); experiment: activators of CRF receptor 2 with binding protein – uHTS hits, confirmation (AID 602473); type: functional; details: read-out: EC50_Mean
T1 sequence (Q13324 whole entry): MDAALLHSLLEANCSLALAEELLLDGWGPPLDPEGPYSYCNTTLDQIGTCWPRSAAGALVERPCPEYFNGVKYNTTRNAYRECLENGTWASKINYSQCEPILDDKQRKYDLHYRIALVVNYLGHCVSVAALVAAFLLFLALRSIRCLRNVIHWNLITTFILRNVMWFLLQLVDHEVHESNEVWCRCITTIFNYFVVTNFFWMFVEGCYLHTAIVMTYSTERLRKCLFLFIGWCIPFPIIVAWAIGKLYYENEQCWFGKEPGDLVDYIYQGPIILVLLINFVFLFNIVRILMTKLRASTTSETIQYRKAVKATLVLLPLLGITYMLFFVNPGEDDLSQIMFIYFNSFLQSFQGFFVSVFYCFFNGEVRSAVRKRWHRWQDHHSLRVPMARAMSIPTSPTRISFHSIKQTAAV
T1 sequence (P24387 whole entry): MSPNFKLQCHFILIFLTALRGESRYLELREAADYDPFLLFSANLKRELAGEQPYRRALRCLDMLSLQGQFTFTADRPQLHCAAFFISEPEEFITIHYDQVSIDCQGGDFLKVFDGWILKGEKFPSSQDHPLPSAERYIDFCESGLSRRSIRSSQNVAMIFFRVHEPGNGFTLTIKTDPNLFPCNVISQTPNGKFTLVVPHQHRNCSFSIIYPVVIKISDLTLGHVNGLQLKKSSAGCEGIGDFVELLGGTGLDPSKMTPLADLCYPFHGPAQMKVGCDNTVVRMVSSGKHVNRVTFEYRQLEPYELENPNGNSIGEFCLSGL

SMILES | EC50
COc1ccc(CNC(=O)C2(c3ccc(Cl)cc3)CC2)cc1 | > 53 µM (inactive)
COc1cccc(CN2CCC(Oc3ccc(C(=O)NCc4ccccn4)cc3)CC2)c1O | > 53 µM (inactive)
CCCN(C(=O)c1cc(Cl)nc2ccccc12)C1CCS(=O)(=O)C1 (stereo unspecified) | > 53 µM (inactive)
CC1(C)Cc2ccccc2C(c2cc3ccccc3oc2=O)=N1 | > 53 µM (inactive)
COc1ccccc1C(=O)COC(=O)c1c(-c2ccccc2)noc1C | > 53 µM (inactive)
CC(C)(C)c1ccc(C(=O)CS(=O)(=O)c2ccccc2)cc1 | > 53 µM (inactive)
Cc1c(C(=O)Nc2c(F)cccc2F)sc2ncn(CC(=O)N3CCCCC3)c(=O)c12 | > 53 µM (inactive)
O=C(COc1ccc(Cl)cc1Cl)Nc1ccccc1F | > 53 µM (inactive)
CCN(CC(=O)Nc1ccc(NC(C)=O)cc1)C(=O)c1ccc(=O)n(C)n1 | > 53 µM (inactive)
Cc1ccc(C(=O)N/N=C\c2ccccn2)cn1 | > 53 µM (inactive)

molecular target: T2, Replicative DNA helicase DnaB (Mycobacterium tuberculosis, UniProt P9WMR3); experiment: DnaB intein splicing inhibitors, dose response, biochemical, cell-free fluorescence (AID 449749); type: functional; details: not given
T2 sequence (P9WMR3 whole entry): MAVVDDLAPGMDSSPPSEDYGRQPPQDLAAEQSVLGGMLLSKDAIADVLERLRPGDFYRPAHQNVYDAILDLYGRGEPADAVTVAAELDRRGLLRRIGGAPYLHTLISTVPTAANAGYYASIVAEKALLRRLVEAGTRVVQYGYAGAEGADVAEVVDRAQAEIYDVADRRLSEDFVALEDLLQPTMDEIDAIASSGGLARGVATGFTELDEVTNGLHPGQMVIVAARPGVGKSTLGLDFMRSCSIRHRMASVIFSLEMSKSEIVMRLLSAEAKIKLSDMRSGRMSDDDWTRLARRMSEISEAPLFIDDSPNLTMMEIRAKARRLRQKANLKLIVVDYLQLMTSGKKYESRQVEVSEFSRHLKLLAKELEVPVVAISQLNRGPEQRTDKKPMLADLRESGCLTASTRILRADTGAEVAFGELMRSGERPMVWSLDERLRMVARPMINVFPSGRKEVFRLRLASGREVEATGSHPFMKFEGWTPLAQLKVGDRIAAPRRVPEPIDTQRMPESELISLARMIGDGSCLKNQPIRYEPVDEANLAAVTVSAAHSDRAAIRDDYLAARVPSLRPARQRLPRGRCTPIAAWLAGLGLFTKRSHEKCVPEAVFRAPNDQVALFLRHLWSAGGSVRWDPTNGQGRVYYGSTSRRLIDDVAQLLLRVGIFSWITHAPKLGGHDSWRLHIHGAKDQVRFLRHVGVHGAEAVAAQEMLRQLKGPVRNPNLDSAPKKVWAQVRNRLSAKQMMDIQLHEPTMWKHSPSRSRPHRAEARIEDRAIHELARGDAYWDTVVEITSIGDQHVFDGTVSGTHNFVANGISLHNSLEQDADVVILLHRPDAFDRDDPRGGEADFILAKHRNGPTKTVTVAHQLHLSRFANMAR

SMILES | AC50
CCC(=O)Nc1c(C)nn(C(=O)CC)c1C | > 380 µM (inactive)
Cc1nn(-c2cccc(Cl)c2)c2c1C(c1cccnc1)C(C#N)=C(N)O2 (stereo unspecified) | 16.7 µM (active)
OC1=C2C(=Nc3nn(-c4ccccc4)c(O)c3C2c2ccc3c(c2)OCO3)CCC1 (stereo unspecified) | 40.9 µM (active)
O=C(Nc1ncc([N+](=O)[O-])s1)c1ccco1 | 24.2 µM (active)
COc1ccc(N2C(=O)C(Cl)=C(NCc3ccccc3)C2=O)cc1 | 68.8 µM (active)
COc1ccc(C(=O)N/N=C\c2coc3ccc(Cl)cc3c2=O)cc1 | > 120 µM (inactive)
O=C(Cc1cc(O)n[nH]1)N/N=C/c1ccccc1Cl | 2 µM (active)

molecular target: T3, Protein RecA (Mycobacterium tuberculosis, UniProt P9WHJ3); experiment: Fluorescence Cell-Free Homogeneous Dose Retest to Identify Inhibitors of RecA-Intein Splicing Activity. [Related pubchem assays (depositor defined):AID2097, AID2223, AID489010, AID492950]; type: functional; details: not given
T3 sequence (P9WHJ3 whole entry): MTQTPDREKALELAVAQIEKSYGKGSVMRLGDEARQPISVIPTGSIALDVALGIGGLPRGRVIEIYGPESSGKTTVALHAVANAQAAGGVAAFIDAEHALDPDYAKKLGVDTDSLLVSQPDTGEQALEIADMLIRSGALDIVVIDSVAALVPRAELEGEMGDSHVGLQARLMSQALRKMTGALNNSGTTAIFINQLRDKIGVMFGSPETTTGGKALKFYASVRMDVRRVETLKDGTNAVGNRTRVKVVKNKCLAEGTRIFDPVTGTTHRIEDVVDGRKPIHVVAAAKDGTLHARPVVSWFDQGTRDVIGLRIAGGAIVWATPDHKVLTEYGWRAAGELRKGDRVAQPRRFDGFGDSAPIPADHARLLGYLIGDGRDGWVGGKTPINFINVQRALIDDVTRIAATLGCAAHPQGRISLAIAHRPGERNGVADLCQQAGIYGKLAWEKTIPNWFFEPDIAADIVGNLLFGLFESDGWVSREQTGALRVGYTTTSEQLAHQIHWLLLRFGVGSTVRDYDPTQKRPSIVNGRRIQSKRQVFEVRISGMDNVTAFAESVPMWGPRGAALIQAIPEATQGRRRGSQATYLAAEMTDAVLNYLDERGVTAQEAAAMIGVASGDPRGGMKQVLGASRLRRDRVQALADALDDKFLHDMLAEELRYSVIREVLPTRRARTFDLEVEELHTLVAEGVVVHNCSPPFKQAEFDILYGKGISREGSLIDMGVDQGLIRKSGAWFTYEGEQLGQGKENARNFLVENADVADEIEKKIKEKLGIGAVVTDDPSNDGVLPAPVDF

SMILES | EC50
CCC(=O)Nc1c(C)nn(C(=O)CC)c1C | > 380 µM (inactive)
Cc1nn(-c2cccc(Cl)c2)c2c1C(c1cccnc1)C(C#N)=C(N)O2 (stereo unspecified) | 5.05 µM (active)
OC1=C2C(=Nc3nn(-c4ccccc4)c(O)c3C2c2ccc3c(c2)OCO3)CCC1 (stereo unspecified) | 3.29 µM (active)
O=C(Nc1ncc([N+](=O)[O-])s1)c1ccco1 | 17.4 µM (active)
COc1ccc(N2C(=O)C(Cl)=C(NCc3ccccc3)C2=O)cc1 | 12.9 µM (active)
COc1ccc(C(=O)N/N=C\c2coc3ccc(Cl)cc3c2=O)cc1 | 19.8 µM (active)
O=C(Cc1cc(O)n[nH]1)N/N=C/c1ccccc1Cl | 1.26 µM (active)

tested on: not listed separately; experiment: NIH-3T3 fibroblast cytotoxicity, dose response, cytotoxicity control, cell-based, fluorescence, Alamar Blue, secondary assay (AID 2327); type: functional; details: not given;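 further: NIH-3T3 mouse fibroblasts cultured with fluconazole at 8 µg/mL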

SMILES | EC50
Cc1ccc(-n2c(S)nnc2Cc2ccccc2)c(C)c1 | > 150 µM (inactive)

tested on: not listed separately; experiment: C. albicans growth with fluconazole, confirmation, fluorescence, retest (AID 2467); type: functional, cell-based; details: not given

SMILES | EC50
Cc1ccc(-n2c(S)nnc2Cc2ccccc2)c(C)c1 | 2.71 µM (active)

molecular target: T1, Corticotropin-releasing factor receptor 2/Corticotropin-releasing factor-binding protein; experiment: Dose Response confirmation of uHTS hits for small molecule antagonists of the CRF-binding protein and CRF-R2 receptor complex.; type: functional; details: read-out: IC50_Mean

SMILES | IC50
COc1ccc(CNC(=O)C2(c3ccc(Cl)cc3)CC2)cc1 | > 47.1 µM (inactive)
COc1cccc(CN2CCC(Oc3ccc(C(=O)NCc4ccccn4)cc3)CC2)c1O | > 47.1 µM (inactive)
CCCN(C(=O)c1cc(Cl)nc2ccccc12)C1CCS(=O)(=O)C1 (stereo unspecified) | > 47.1 µM (inactive)
CC1(C)Cc2ccccc2C(c2cc3ccccc3oc2=O)=N1 | > 47.1 µM (inactive)
COc1ccccc1C(=O)COC(=O)c1c(-c2ccccc2)noc1C | > 47.1 µM (inactive)
CC(C)(C)c1ccc(C(=O)CS(=O)(=O)c2ccccc2)cc1 | > 47.1 µM (inactive)
Cc1c(C(=O)Nc2c(F)cccc2F)sc2ncn(CC(=O)N3CCCCC3)c(=O)c12 | > 47.1 µM (inactive)
O=C(COc1ccc(Cl)cc1Cl)Nc1ccccc1F | > 47.1 µM (inactive)
CCN(CC(=O)Nc1ccc(NC(C)=O)cc1)C(=O)c1ccc(=O)n(C)n1 | > 47.1 µM (inactive)
Cc1ccc(C(=O)N/N=C\c2ccccn2)cn1 | > 47.1 µM (inactive)
